Laboratory results from the NIST ThermoML archive (doi:10.1016/j.jct.2010.12.021).
Numbers after ± are expanded uncertainties.

Assay: Molar enthalpy of transition or fusion
Conditions: Crystal; DSC

CCCCCC[n+]1cccc2ccccc21.O=S(=O)([N-]S(=O)(=O)C(F)(F)F)C(F)(F)F [1-hexylquinolinium bis(trifluoromethylsulfonyl)amide]
Molar enthalpy of transition or fusion: 15.2 ± 0.669 kcal/mol
